Experimental data taken from PMC7395068, “The evolution of strategies to minimise the risk of human drug-induced liver injury (DILI) in drug discovery and development” (Archives of Toxicology, 2020).
Read-outs that look alike come from different tables or passages of the source.

Legend:
PHH spheroids = details: In vitro Assay; ref Vorrink 2018; cited from earlier work
[1] = system: THLE or HepG2 cells, isolated mitochondria, BSEP; details: cited from earlier work
hLiMTs = test: Combined HCI (HCS) and cellular ATP 3D assay in hLiMTs; details: for AC50 / minimal effective concentration: Homo sapiens
[2] = plasma free fraction; cited from earlier work
HepaRG spheroids = test: Combined HCI (HCS) and cellular ATP 3D assay in HepaRG spheroids; details: for AC50 / minimal effective concentration: Homo sapiens
rBsep = details: In vitro Assay; ref Dawson 2012; cited from earlier work
[3] = system: THLE-Null and THLE-3A4 cells; details: In vitro Assay; ref Gustafsson 2014; cited from earlier work
[4] = system: HepG2 C3A spheroid, BSEP, Glu/Gal in HepG2 cells, bioactivation; details: cited from earlier work
[5] = read-out: Human plasma Cmax; total plasma Cmax.tot, median of 9 literature references; cited from earlier work
[6] = Plasma free fraction (fu) and unbound Cmax (Cmax,u); format: in vitro ADME, human; details: unbound plasma Cmax
[7] = Modeled in vitro assays (cytotoxicity, mitochondrial dysfunction, BSEP), ref Aleo et al. 2019
[8] = Microtissue model structural based (HCI), combined HCS and ATP, MEC < 25 × Cmax.tot cut-off

hLiMTs <25x Avg Cmax ATP (hLiMTs; hLiMTs, ATP endpoint, cut-off <25x Avg Cmax): +ve
hLiMTs <100x Avg Cmaxu ATP (hLiMTs; hLiMTs, ATP endpoint, cut-off <100x Avg Cmaxu): -ve
hLiMTs <25x Avg Cmax HCS (hLiMTs; hLiMTs, HCS endpoints, cut-off <25x Avg Cmax): +ve
hLiMTs <100x Avg Cmaxu HCS (hLiMTs; hLiMTs, HCS endpoints, cut-off <100x Avg Cmaxu): +ve (<100x Avg Cmaxu)
hLiMTs <25x Avg Cmax All (hLiMTs; hLiMTs, all endpoints (ATP and HCS), cut-off <25x Avg Cmax): +ve
hLiMTs Cmax max All (hLiMTs; hLiMTs, all endpoints, Cmax max used): +ve
hLiMTs Cmax min All (hLiMTs; hLiMTs, all endpoints, Cmax min used): +ve
hLiMTs <10 uM All (hLiMTs; hLiMTs, all endpoints, cut-off <10 uM): +ve (<10 uM)
hLiMTs <100x Avg Cmaxu All (hLiMTs; hLiMTs, all endpoints, cut-off <100x Avg Cmaxu): +ve (<100x Avg Cmaxu)
HepaRG <25x Avg Cmax ATP (HepaRG spheroids; HepaRG, ATP endpoint, cut-off <25x Avg Cmax): +ve
HepaRG <100x Avg Cmaxu ATP (HepaRG spheroids; HepaRG, ATP endpoint, cut-off <100x Avg Cmaxu): -ve
HepaRG <25x Avg Cmax HCS (HepaRG spheroids; HepaRG, HCS endpoints, cut-off <25x Avg Cmax): +ve
HepaRG <100x Avg Cmaxu HCS (HepaRG spheroids; HepaRG, HCS endpoints, cut-off <100x Avg Cmaxu): +ve (<100x Avg Cmaxu)
HepaRG <25x Avg Cmax All (HepaRG spheroids; HepaRG, all endpoints (ATP and HCS), cut-off <25x Avg Cmax): +ve
HepaRG Cmax max All (HepaRG spheroids; HepaRG, all endpoints, Cmax max used): +ve
HepaRG Cmax min All (HepaRG spheroids; HepaRG, all endpoints, Cmax min used): +ve
HepaRG <10 uM All (HepaRG spheroids; HepaRG, all endpoints, cut-off <10 uM): +ve (<10 uM)
HepaRG <100x Avg Cmaxu All (HepaRG spheroids; HepaRG, all endpoints, cut-off <100x Avg Cmaxu): +ve (<100x Avg Cmaxu)
Human plasma Cmax,u [6]: 73 nM
SMILES: CN1CCN(C2=Nc3cc(Cl)ccc3Nc3ccccc32)CC1 [clozapine]
hLiMTs ATP <20 x Cmax (PHH spheroids): +VE (IC20 < 20 × Cmax.tot cut-off)
Partition Hybrid HRM Score ([1]; In vitro Assay, ref Aleo 2019): +VE
Ro2 Hybrid HRM Score ([1]; In vitro Assay, ref Aleo 2019): +VE
Partition Hybrid HRM Score ≥4, Aleo (2019) [1, 7]: +VE (Partition Hybrid HRM Score ≥4)
Partition Hybrid HRM Score ≥8, Aleo (2019) [1, 7]: -VE
Rule of Two hybrid HRM Score ≥3, Aleo (2019) [1, 7]: +VE (Rule of Two hybrid HRM Score ≥3)
Rule of Two hybrid HRM Score ≥8, Aleo (2019) [1, 7]: -VE
AC50 (hLiMTs; read-out: ATP endpoint AC50): 14 µM
minimal effective concentration (hLiMTs; read-out: ATP endpoint MEC): 10.5 µM
AC50 (hLiMTs; read-out: HCS endpoint AC50): 15.2 µM
minimal effective concentration (hLiMTs; read-out: HCS endpoint MEC): 5.61 µM
DILI prediction hLiMTs (HCS-MEC) (hLiMTs; [8]): +VE (MEC < 25 × Cmax.tot cut-off)
fu [2]: 0.030
AC50 (HepaRG spheroids; HepaRG, read-out: ATP endpoint AC50): 16.6 µM
minimal effective concentration (HepaRG spheroids; HepaRG, read-out: ATP endpoint MEC): 13.1 µM
AC50 (HepaRG spheroids; HepaRG, read-out: HCS endpoint AC50): 13.2 µM
minimal effective concentration (HepaRG spheroids; HepaRG, read-out: HCS endpoint MEC): 4.66 µM
DILI prediction HepaRG spheroids (HCS-MEC) (HepaRG spheroids; [8]): +VE (MEC < 25 × Cmax.tot cut-off)
Inhibition of rBsep cutoff<1& cmax u>.2 (rBsep): -VE
Inhibition of rBsep cutoff<3 (rBsep): +VE
THLE-Null [3]: -VE
Bayesian Machine Learning DILI prediction, Williams (2019) ([4]; Bayesian modeling, ref Williams et al. 2019): +VE
Bayesian Machine Learning ([4]; In vitro Assay, ref Williams 2019): +VE
Cmax [5]: 2450 nM
